Measured values from patent US20260097091A1, “ADMINISTRATION OF GLUTATHIONE TRISULFIDE TO AMELIORATE PERIPHERAL NEUROPATHY” (The General Hospital Corporation, priority 2022, published 2026).

Legend:
[1] = system: MDA-MB-231 human breast cancer cells; test: MDA-MB-231 live cell count by trypan blue exclusion assay; type: cell-based; details: 24 hours
Experimental: To examine whether co-administration of GSSSG affects anti-tumor effects of paclitaxel, we conducted experiments using MDA-MB-231, a human breast cancer cell line (HTB-26, ATCC). Cells were cultured in the medium of 90% RPMI1640 (Corning, Cat No. 10-040-CV), 10% FBS, and 1% penicillin/streptomycin. After being seeded into a 96-well plate at the density of 20,000/well and cultured overnight, they were exposed to different concentrations of paclitaxel (0.125 μM, 0.25 μM, 0.5 μM, 1 μM, and 2 μM) and incubated for 24 hours. Cell viability was evaluated by LDH Cytotoxicity Detection Kit (Roche, Cat No. 11644793001). Briefly, a plate was centrifuged at 250×g for 10 minutes. […] After mixing with assay enzyme for 30 minutes at 25° C., absorbance was measured at wavelength 492 nm to determine cell viability. Inhibitory effects of paclitaxel were calculated by half-maximal inhibitory concentration (IC50). […] After being stripped by 0.25% trypsin, live cells were counted under 0.04% trypan blue. Five wells were evaluated per group.
Sample sizes for behavior test were chosen based on a previous study. All values are expressed as mean±standard deviation (SD). The behavior test results were analyzed in the mixed effect model because the behavior was measured repeatedly over five times from the same mice, and individual differences at baseline were confirmed in the preliminary study. […]

[2] = system: primary DRG neurons; test: primary DRG neurons exposed to paclitaxel: Sholl analysis and axonal mitochondria (NF200, MitoTracker); type: cell-based, mice
Experimental: Primary DRG neurons were prepared from 8 to 10-week old mice as described previously. Briefly, lumber DRG (L1 to L6) were isolated from mice and centrifuged at 176×g (1000 rpm) for 3 minutes. After aspirating the solution, DRG were incubated with Dispase-II Solution (Sigma-Aldrich, Cat No. SCM133) and collagenase type II (Worthington, Cat No. LS004176) for 70 minutes and with 0.25% trypsin for 5 minutes. Subsequently triturated by frame polished glass pipet, neurons were seeded on a 12-well plate with 15 mm coverslip. Cells were incubated in Neurobasal A-medium with 2% B27 supplement (Gibco, Cat No. 10889038), 1% penicillin/streptomycin, 1% Glutamax (Gibco, Cat No. 35050061), and nerve growth factor (Sigma Aldrich, Cat No. N6009) for 24 hours. After 24 hours, they were exposed to 100 nM of paclitaxel with or without 500 nM of GSSSG or PTNSSS for one hour and 50 nM of MitoTracker (Invitrogen, Cat No. M22426) for 30 minutes. After fixing by 4% paraformaldehyde for 10 minutes at room temperature, cells were immersed in 0.2% Triton X-100 in PBS for 7 minutes and washed by PBS. They were incubated with anti-NF200 antibody (1:400, mouse, Sigma-Aldrich, Cat No. N0142) overnight at 4° C. and with the secondary antibody (1:1000, donkey anti-mouse, Abcam, Cat No. ab150105) for one hour at room temperature. After being covered with fluoroshield mounting medium with DAPI (Sigma-Aldrich, Cat No. F6057), 9-10 cells per group (3 mice per group) were imaged on confocal microscopy (ZEISS LSM 800, Carl Zeiss, Thornwood, NY) using a 63× oil immersion objectives lens with 1,024×1,024 pixels image size.
Effects of PTNSSS and GSSSG on axonal integrity were examined in cultured murine primary DRG neurons incubated with paclitaxel. […] Morphology of neurons, the number, length, and branching of neurites, was analyzed by Sholl analysis implemented in ImageJ [30]. Sholl analysis draws equally spaced circles from the soma and counts the number of intersections between neurites and circles to quantify neuronal morphology (FIG. 8C).

[3] = 500 nM GSSSG with 100 nM paclitaxel for one hour, vs paclitaxel

Structure (SMILES)	number of alive MDA-MB-231 cells ([1]; 2 μM paclitaxel alone)	number of mitochondria in axons ([2]; 100 nM paclitaxel for one hour)	ratio of the total mitochondria length to axonal length ([2]; 100 nM paclitaxel for one hour)	elongation of axons (Sholl analysis) ([2]; 100 nM paclitaxel for one hour, vs control)	number of alive MDA-MB-231 cells ([1]; 2 μM paclitaxel + 10 μM GSSSG)	axonal elongation (Sholl analysis) ([2]; 500 nM GSSSG with 100 nM paclitaxel for one hour, >160 μm from soma, vs paclitaxel)	number of mitochondria in axons [2, 3]	ratio of the total mitochondria length to axonal length [2, 3]
CC(=O)O[C@H]1C(=O)[C@@]2(C)[C@H]([C@H](OC(=O)c3ccccc3)[C@]3(O)C[C@H](OC(=O)[C@H](O)[C@@H](NC(=O)c4ccccc4)c4ccccc4)C(C)=C1C3(C)C)[C@]1(OC(C)=O)CO[C@@H]1C[C@@H]2O [paclitaxel, Paclitaxel, reference compound]	44.9 % of control cells	decreased	decreased the ratio of the total mitochondria length to axonal length	hampered elongation of axons				
N[C@@H](CCC(=O)N[C@@H](CSSSC[C@H](NC(=O)CC[C@H](N)C(=O)O)C(=O)NCC(=O)O)C(=O)NCC(=O)O)C(=O)O [GSSSG, glutathione trisulfide]					48.3 % of control cells	restored axonal elongation	prevented paclitaxel-induced decrease	prevented paclitaxel-induced decrease of the ratio of the total mitochondria length to axonal length
